Measurements published in PubChem BioAssay (NCI).
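Grown in 96-well plates, cells were treated for 48 hours with each compound at five concentrations. Insufficient inhibition: endpoint recorded as highest concentration tested. Here, GI50 denotes the concentration required for 50% inhibition of growth. TGI denotes the concentration required for complete inhibition of growth.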

How the values were obtained:
Experiment in all cases: inhibition of tumour cell growth, NCI panel, 48 h
[1] = system: KM12 colon
[2] = system: TK-10 renal
[3] = system: M19-MEL melanoma
[4] = system: LOX IMVI melanoma
[5] = system: KM20L2 colon
[6] = system: SN12C renal
[7] = system: DMS 114 small cell lung
[8] = system: COLO 205 colon
[9] = system: DLD-1 colon
[10] = system: MCF7 breast
[11] = system: MDA-MB-435
[12] = system: NCI/ADR-RES ovarian

Structure (SMILES)	TGI [1]	TGI [2]	TGI [3]	TGI [4]	TGI [5]	TGI [6]	TGI [7]	TGI [8]	TGI [9]	TGI [10]	TGI [11]	GI50 [1]	GI50 [2]	GI50 [4]	GI50 [10]	GI50 [6]	GI50 [11]	GI50 [12]	TGI [12]	GI50 [8]
NCCCCCCNCc1cccc2ccccc12	> 100 µM	> 100 µM	> 100 µM	> 100 µM	> 100 µM	> 100 µM	> 100 µM	> 100 µM	> 100 µM											
COC1OC(C)C2OC(C)(C)OC2C1OC(C)=O (stereo not drawn)	> 100 µM	> 100 µM	> 100 µM	> 100 µM	> 100 µM	> 100 µM		> 100 µM	> 100 µM											
Cc1ccc(C)c(NC(=O)CC2SC(=Nc3ccccc3Cl)NC2=O)c1 (stereo not drawn)	> 100 µM	> 100 µM	> 100 µM		> 100 µM	> 100 µM	> 100 µM	> 100 µM	> 100 µM											
C=CCOC(=O)C1CCC(=O)N1C(=O)C(Cl)Cl (stereo not drawn)	> 100 µM	> 100 µM	> 100 µM	> 100 µM	> 100 µM	> 100 µM	> 100 µM	> 100 µM	> 100 µM											
COc1cc2c(cc1C1=NC(C)(C)CO1)OCO2	> 100 µM	> 100 µM	> 100 µM		> 100 µM	> 100 µM	> 100 µM	> 100 µM	> 100 µM											
CN(C)CCNC(=O)c1cccc2ccc(-c3ccc(-c4ccccc4)cc3)nc12	5.6 µM	9.43 µM	3.23 µM	3.09 µM	4.67 µM	20.2 µM	3.07 µM	3 µM	8.64 µM											
CCn1c2c(c3ccccc31)C(c1ccccc1)CC1C(=O)N(c3ccccc3)C(=O)C21 (stereo not drawn)	> 100 µM	> 100 µM	> 100 µM	> 100 µM	> 100 µM	> 100 µM	> 100 µM	> 100 µM	> 100 µM											
CCCCCCCCCCCCCC(=O)CSCCNC(=O)CCNC(=O)[C@@H](O)C(C)(C)COP(=O)(O)OP(=O)(O)OCC1OC(n2cnc3c(N)ncnc32)C(O)C1OP(=O)(O)O (stereo partly drawn)	39 µM	> 100 µM	35.3 µM	37.2 µM	48 µM	34.5 µM	33.3 µM	29.4 µM	41.1 µM											
CCOC(=O)C(CNc1ccc(O)cc1)NC(=O)c1ccccc1 (stereo not drawn)	> 100 µM	> 100 µM	> 100 µM	> 100 µM	> 100 µM	> 100 µM	> 100 µM	> 100 µM	> 100 µM											
CC(C)(C)OC(=O)c1cccnc1/C=N/O	> 100 µM	> 100 µM	> 100 µM	> 100 µM	> 100 µM	> 100 µM	> 100 µM	> 100 µM	> 100 µM											
C/C=C/COC(=O)CO[N+](=O)[O-]	> 100 µM	> 100 µM	> 100 µM	> 100 µM	> 100 µM	> 100 µM	> 100 µM	> 100 µM	> 100 µM											
C[C@]12CCNC(=O)C=C1CC[C@@H]1C2CC[C@@]2(C)C1CC[C@@H]2OC(=O)COc1ccc(N(CCCl)CCCl)cc1 (stereo partly drawn)	24.4 µM	35.6 µM	18.6 µM	22.8 µM	30.3 µM	21.8 µM		23.9 µM	17.8 µM	14.8 µM	74.5 µM									
Cn1c(=O)c2[nH]cnc2n(CC(N)=O)c1=O	> 100 µM	> 100 µM	> 100 µM			> 100 µM	> 100 µM	> 100 µM	> 100 µM											
CCN(CC)CCn1[nH]c2c3ccc(=O)cc3sc3c(NCCN)ccc1c32	2.75 µM	11.3 µM	1.48 µM	1.03 µM		8.15 µM	1.52 µM		10.1 µM											
N#Cc1ccc2cc3c(cc2c1)OCO3	> 100 µM		> 100 µM	> 100 µM	> 100 µM	> 100 µM	> 100 µM	> 100 µM	> 100 µM											
C#CCN(C(=O)C(F)(F)F)c1ccc(C(=O)c2ccc(N(CC#C)C(=O)C(F)(F)F)cc2)cc1	> 100 µM	> 100 µM	> 100 µM		> 100 µM	> 100 µM	55.1 µM	92.5 µM	> 100 µM											
COc1cc(C2C3=C(COC3=O)N(CCO)c3cc4c(cc32)OCO4)cc(OC)c1O (stereo not drawn)	> 20.6 µM	> 50 µM		> 50 µM		> 50 µM		4.07 µM		> 50 µM	1.53 µM	1.35 µM	4.54 µM	2.5 µM	1.19 µM	> 12.1 µM	0.343 µM	11.3 µM	> 50 µM	1.48 µM
COc1cc(NCCN=C(N)NC(N)=NC(C)C)c2ncccc2c1	> 41.2 µM	69.9 µM		94.8 µM		18.2 µM		7.95 µM		0.116 µM	41.9 µM	3.53 µM	11.3 µM	20.1 µM	0.0297 µM	3.47 µM	18.6 µM	> 100 µM	> 100 µM	1.7 µM
Cc1ccc(NCCN(C)C)c2c(=O)c3ccccc3sc12	3.1 µM	5.45 µM		3.45 µM		9.61 µM		2.65 µM		2.95 µM	3.47 µM	1.66 µM	2.34 µM	1.61 µM	1.47 µM	2.45 µM	1.71 µM	1.93 µM	4.6 µM	1.29 µM

Structure (SMILES)	TGI [1]	TGI [2]	TGI [3]	TGI [4]	TGI [5]	TGI [6]	TGI [7]	TGI [8]	TGI [9]	TGI [10]	TGI [11]	GI50 [1]	GI50 [2]	GI50 [4]	GI50 [10]	GI50 [6]	GI50 [11]	GI50 [12]	TGI [12]	GI50 [8]
COc1ccc(C2C=C(c3ccc(Cl)cc3)N=C3SC=C(C)N32)c(Br)c1 (stereo not drawn)	5.77 µM	14.4 µM		7.56 µM		15.1 µM		10.3 µM		12.5 µM	14.9 µM	2.26 µM	4.05 µM	2.21 µM	2.32 µM	3.23 µM	3.02 µM	4.22 µM	> 100 µM	3.54 µM
O=c1[nH]c(=O)n(C2CC(O)C(CO)O2)cc1C#Cc1ccc(F)cc1 (stereo not drawn)	> 100 µM		> 100 µM	> 100 µM	> 100 µM	> 100 µM	> 100 µM	> 100 µM	> 100 µM											
Cc1cc(Nc2cc(N3CCN(C)CC3)nc(Sc3ccc(NC(=O)C4CC4)cc3)n2)n[nH]1	> 10 µM	> 10 µM		3.87 µM		> 10 µM		7.32 µM		> 10 µM	> 10 µM	0.0461 µM	> 10 µM	0.424 µM	0.492 µM	3.59 µM	2.11 µM	> 10 µM	> 10 µM	0.0456 µM
Nc1nc(N)c2cc(Sc3cccc(C(F)(F)F)c3)ccc2n1	11.3 µM	14 µM		1.82 µM		15.7 µM		3.02 µM		16.2 µM	5.81 µM			0.307 µM					14.8 µM	
O=C1c2ccccc2C(=O)c2c(NCC3CO3)ccc(NCC3CO3)c21 (stereo not drawn)	19.4 µM	45 µM		0.0161 µM		2.06 µM		29.9 µM		1.25 µM	2.58 µM								11.4 µM	
CN(C)c1ccc(/C=c2/c3ccccc3n3c2c2cc(F)ccc2[n+]3C)cc1	19.4 µM	14.7 µM		> 100 µM		2.7 µM		7.37 µM		32.1 µM	11.9 µM	4.28 µM	3.83 µM	11.7 µM	6.57 µM		3.84 µM	48.4 µM	> 100 µM	2.15 µM
Clc1ccccc1C(Nc1ncccn1)Nc1ncccn1	> 100 µM	> 100 µM		> 100 µM		> 100 µM		> 100 µM		> 100 µM	> 100 µM								> 100 µM	
CCOC(=O)c1cnn2c3ccccc3n(S(=O)(=O)c3ccc(OC)cc3)c12	21.9 µM	> 100 µM		> 61 µM		> 57.5 µM		1.08 µM		> 100 µM	> 100 µM	0.196 µM	25.2 µM	0.496 µM	0.0998 µM	0.625 µM	0.0473 µM	0.23 µM	24.5 µM	0.289 µM
O=C(CC(=O)c1cccc(Cl)c1)c1cccc(Cl)c1	> 100 µM	> 100 µM		> 100 µM		> 100 µM		> 100 µM		> 100 µM	> 100 µM	3.02 µM	4.12 µM	1.37 µM	1.72 µM	2.38 µM	3.18 µM	2.06 µM	6.35 µM	3.97 µM
O=c1cc(-c2ccccc2)oc2cc(OC/C(=N/O)c3ccc(F)cc3)ccc12	29.2 µM	31.8 µM		> 50 µM		> 50 µM		> 50 µM		31 µM	> 50 µM	11.3 µM	13.7 µM	20.8 µM	11.9 µM	15.5 µM	13.8 µM	21 µM	> 50 µM	26.1 µM
Oc1[nH]c2ccccc2c1N=Nc1c(F)c(F)c(F)c(F)c1F	> 61.9 µM	62.8 µM		> 66.7 µM		> 55.7 µM		28.3 µM		> 100 µM	> 100 µM								> 100 µM	
O=C1c2ccccc2C(=O)c2sc(Nc3ccccc3Cl)nc21	29.6 µM	34.2 µM	3.17 µM	6.63 µM	39.5 µM	21.1 µM		29 µM	25.1 µM	40.6 µM										
O=C1C2C3C=C4c5ccccc5N(c5ccccc5)C4(C2C(=O)N1c1ccc(Br)cc1)[C@H]1C(=O)N(c2ccc(Br)cc2)C(=O)[C@@H]31 (stereo partly drawn)	> 100 µM	> 100 µM		> 100 µM	> 100 µM	> 100 µM		> 100 µM	> 100 µM											
O=C(c1ccccc1)n1c(-c2ccccc2)cs/c1=N\S(=O)(=O)c1ccc(N2N=C3c4ccccc4CC3C2c2cccs2)cc1 (stereo not drawn)	> 100 µM	70.7 µM		> 100 µM		> 100 µM		> 100 µM		> 100 µM	> 100 µM	38.3 µM	30.5 µM	30.7 µM	> 100 µM	44.4 µM	31.1 µM	> 100 µM	> 100 µM	98.1 µM
COc1cccc(/C(C)=N/NC(=O)CSc2nc3ccccc3c(=O)n2CCc2ccc(S(N)(=O)=O)cc2)c1	7.67 µM	5.42 µM		11.7 µM		19.5 µM		21.1 µM		15.4 µM	12.6 µM	2.8 µM	2.36 µM	3.1 µM	3.14 µM	4.52 µM	3.18 µM	21.3 µM	> 100 µM	4.13 µM
COc1ccc(C(CC(=O)c2ccccc2)C(C(=O)c2ccccc2)C(c2ccc(OC)cc2)C2C(=O)NC(=S)NC2=O)cc1 (stereo not drawn)	39.8 µM	> 100 µM		20.6 µM		45.2 µM		> 100 µM		> 100 µM	35.3 µM	8.12 µM	18.7 µM	8.18 µM	16.1 µM	12.8 µM	10.6 µM	10.7 µM	34.1 µM	8.86 µM
CN1CCN(Cc2ccc3c(NNC(=O)c4ccccc4)nc4cc(F)ccc4n23)CC1	> 96.4 µM	> 92.5 µM		12.6 µM		> 100 µM		13.6 µM		11.8 µM	> 66 µM	0.42 µM	0.252 µM	0.277 µM	0.359 µM	0.551 µM	0.599 µM	0.22 µM		0.325 µM
COC1C2c3cc4c(cc3CC(C#N)(c3ccccc32)N1C(=O)c1ccccc1)OCO4 (stereo not drawn)	> 100 µM	> 100 µM		> 100 µM	> 100 µM	> 100 µM	> 100 µM	> 100 µM	> 100 µM											
Cc1ccc(-c2nc([P+](c3ccccc3)(c3ccccc3)c3ccccc3)c(Nc3ccccc3)o2)cc1	1.83 µM	2.78 µM		1.76 µM		1.84 µM		2.78 µM		1.43 µM	1.63 µM	0.519 µM	1.27 µM	0.457 µM	0.346 µM	0.541 µM	0.457 µM	1.11 µM	2.58 µM	0.995 µM
